Among the data in EP4556003A1, “ANTI-OBESITY AND ANTI-DIABETIC ACTIVITY OF BROMINATED DITERPENES FROM RED ALGAE OF THE GENUS LAURENCIA AND APPLICATIONS THEREOF” (priority 2023, dated 2025) are lipid accumulation values, retold here.

This test relates to 3T3-L1 adipocytes. Description: Oil red o staining of intracellular lipid accumulation. The class given is cell-based, Mouse. As to the method: Mouse 3T3-L1 preadipocytes were maintained in proliferation medium containing DMEM supplemented with 10% (v/v) heat inactivated NBCS and 1% (v/v) penicillin-streptomycin at 37 °C with 5% CO2, humidified atmosphere. Cells were seeded in T-75 flasks at a density of 25×10^4 cells/flask. Cultures never became completely confluent according to the manufacturer's instructions. They were passaged using trypsin-EDTA solution once they reached 70-80% confluency. For differentiation, 3T3-L1 cells were seeded and after 24 h (day 1), cell differentiation was induced by changing the medium to high glucose DMEM containing 10% (v/v) heat inactivated FBS, 1% penicillin-streptomycin, 10 µg/mL insulin, 0.25 µM Dexamethasone (GAP), 0.5 mM IBMX (=differentiation medium I). On day 3, the medium was changed to high glucose DMEM containing 10% FBS, 1% penicillin- streptomycin, and 10 µg/mL insulin (=differentiation medium II). Thereafter, medium was changed every other day switching between differentiation medium I and differentiation medium II until day 12 or 23, when adipocytes were harvested. Control group preadipocytes were seeded at a higher density and harvested after two days. Test compounds were administered either at the initiation of differentiation, or after 15 days of differentiation and with every medium change. To determine the effect on preadipocyte differentiation, cells were seeded and after 24 h they were treated with neorogioldiol. Neorogioldiol was maintained in the culture medium throughout cell differentiation period. To determine the effect of neorogioldiol on mature adipocytes, cells were seeded and induced to differentiate for 14 days, then on day 15 neorogioldiol was added to the differentiation medium for 24 h before cells were harvested. Each compound used was diluted in a 90% carbowax™ 400, 10% (v/v) absolute ethanol solution serving as a control solvent. The final concentration in culture was 0.09% (v/v) carbowax and 0.01% (v/v) ethanol. […]
Oil red o staining was applied to measure lipid accumulation intracellularly. Briefly, after 12 or 23 days of differentiation, the cell culture medium was removed and the 3T3-L1 adipocytes were fixed in 3.7% formaldehyde for 60 min at room temperature. Next, a solution of 0.21% oil red o was filtered using a 0.45 µm filter followed by incubation of the fixed cells for 45 min at room temperature. Excess dye was removed and cells were washed twice with PBS. Fresh PBS was added and the lipid droplets within the differentiated 3T3-L1 cells were visualized and photographed by microscopy. For quantitative analysis, oil red o staining was eluted with 100% isopropanol and the absorbance was measured at 510 nm using the Infinite® 200 PRO microplate plate reader (Tecan, Zurich, Switzerland).

As for neorogioldiol, the lipid accumulation entry was “reduced lipid accumulation” (differentiation in presence of serial concentrations 62.5, 31.25, 15.625, 7.81 and 3.9 µM, dose-dependent); “significantly reduced lipid accumulation” (differentiation induced in the presence of compound, after 12 days, 1 at 62.5 µM, 2 at 25 µM); “decreased lipid accumulation” (mature adipocytes: differentiated 15 days, then 62.5 µM for 8 more days).
